Measurements from PubChem BioAssay AID1919016 (Molecular Pharmacology Branch, DTP, NCI, 2023).

Test system: NCI-H196 complex spheroid growth, percent test/control
Experiment: Anticancer human tumor NCI-H196 cell line growth inhibition [AhR];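 further: seven days of drug exposure starting three days after plating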;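 on viability, T/C: 100% = DMSO vehicle control wells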
Details: for IC50: curve of first compound; for viability, T/C: stronger effect = lower value
Source text: Multicellular complex tumor spheroid response to aryl hydrocarbon receptor antagonists in combination with a variety of drugs and investigational agents in selected tumor cell lines
The current study was undertaken to assess response to aryl hydrocarbon receptor antagonists in combination with standard-of-care drugs and investigational agents in solid tumor complex spheroid models. Complex spheroids include a stromal component modeled by human endothelial cells (HUVEC) and fibroblasts modeled by human mesenchymal stem cells (MSCs). The concentration ranges selected for each drug and investigational agent were based upon clinically achievable concentrations if the clinical Cmax of the agent was known.
Compounds. The drugs and investigational agents: BAY 2416964 (NSC825713), GNF351 (NSC835774), CH-223191 (NSC835775), CPI-455 (NSC825282), aza-TdCyd (NSC777586), decitabine (NSC127716), belinostat (NSC758774), entinostat (NSC756642), pevonedistat (NSC761192), tazemetostat (NSC777109), talazoparib (NSC765396), olaparib (NSC753686), selinexor (NSC780203), nedisertib (M3814, NSC802822), bortezomib (NSC756655), venetoclax (NSC766270), doxorubicin (NSC123127), elimusertib (BAY189344, NSC800525), ceralasertib (AZD6738, NSC777638), TAK-243 (NSC785004), alisertib (NSC759677), etoposide (NSC141540), topotecan (NSC609699), eribulin (NSC707389), gemcitabine (NSC613327), carboplatin (NSC241240), cisplatin (NSC119875), and SN-38 (NSC673596) were obtained from the National Cancer Institute (NCI) Developmental Therapeutics Program Chemical Repository (32). The FDA-approved anticancer drug set is available from the Developmental Therapeutics Program at https://dtp.cancer.gov/organization/dscb/obtaining/available plates.htm. […] The stock solutions were prepared in dimethyl sulfoxide (DMSO, Sigma-Aldrich, St. Louis, MO, cat. D2650), except for the platinum compounds which were prepared in saline (Quality Biological, Gaithersburg, MD, cat. 114-055-101), at 800-fold the tested concentration and stored at -70 degrees C prior to their use. All drugs and investigational agents were tested over a range starting from a high concentration at or near the clinical Cmax and decreasing in half-log increments. If the clinical Cmax for an agent had not been determined, the highest concentration tested was 10 microM (Table 1).
Cell Culture. All cells were maintained in an incubator at 37 degrees C and 5% CO2 with 95% humidity. The PDC lines were cultured according to standard operating procedures established by the NCI PDMR (https://pdmr.cancer.gov). Briefly, all PDCs were thawed and cultured in Matrigel-coated flasks prepared with a working solution of 1X Ham's F-12 nutrient mix, without supplementation (Invitrogen, Waltham, MA, cat. 11765054), 100 U/mL penicillin-streptomycin (Invitrogen, cat. 15140122), and 2.5% Matrigel (Corning Inc., Corning, NY, cat. 354248) for the first three passages. All PDCs were cultured in complete DMEM/F-12 media containing advanced DMEM/F-12 (Invitrogen, cat. 12634028), 4.9% defined fetal bovine serum, heat inactivated (HyClone Laboratories Inc., Logan, UT, cat. SH30070.03HI), 389 ng/mL hydrocortisone (Sigma-Aldrich, cat. H4001), 9.7 ng/mL human EGF recombinant protein (Invitrogen, cat. PHG0313), 23.4 microg/mL adenine (Sigma-Aldrich, cat. A2786), 97.3 U/mL penicillin-streptomycin (Invitrogen, cat. 15140122), 1.9 mM L-glutamine (Invitrogen, cat. 25030081), and 9.7 microM Y-27632 dihydrochloride (Tocris Bioscience, Bristol, United Kingdom, cat. 1254). The PDCs were cultured in complete DMEM/F12 media without 10 microM Y-27632 dihydrochloride for at least two passages prior to the screen. The established cell lines NCI-H1341 and […] were cultured in DMEM/F-12, HEPES (Invitrogen, cat. 11330032), 5% defined fetal bovine serum (HyClone Laboratories Inc., cat. SH30070.03), ITS premix universal culture supplement [insulin (5 microg/mL), transferrin (5 microg/mL), and selenious acid (5 ng/mL)] […]

[1] = second compound 0.1 µM, first compound 0.0316 µM
[2] = second compound 0.1 µM, first compound 0.1 µM
[3] = second compound 0.1 µM, first compound 0.316 µM
[4] = second compound 0.1 µM, first compound 1 µM
[5] = second compound 0.1 µM, first compound 3.16 µM
[6] = second compound 0.1 µM, first compound 10 µM
[7] = second compound 0.316 µM, first compound 0.0316 µM
[8] = second compound 0.316 µM, first compound 0.1 µM
[9] = second compound 0.316 µM, first compound 0.316 µM
[10] = second compound 0.316 µM, first compound 1 µM
[11] = second compound 0.316 µM, first compound 3.16 µM
[12] = second compound 0.316 µM, first compound 10 µM
[13] = second compound 1 µM, first compound 0.0316 µM
[14] = second compound 1 µM, first compound 0.1 µM
[15] = second compound 1 µM, first compound 0.316 µM
[16] = second compound 1 µM, first compound 1 µM
[17] = second compound 1 µM, first compound 3.16 µM
[18] = second compound 1 µM, first compound 10 µM
[19] = second compound 3.16 µM, first compound 0.0316 µM
[20] = second compound 3.16 µM, first compound 0.1 µM
[21] = second compound 3.16 µM, first compound 0.316 µM
[22] = second compound 3.16 µM, first compound 1 µM
[23] = second compound 3.16 µM, first compound 3.16 µM
[24] = second compound 3.16 µM, first compound 10 µM
[25] = second compound 10 µM, first compound 0.0316 µM
[26] = second compound 10 µM, first compound 0.1 µM
[27] = second compound 10 µM, first compound 0.316 µM
[28] = second compound 10 µM, first compound 1 µM
[29] = second compound 10 µM, first compound 3.16 µM
[30] = second compound 10 µM, first compound 10 µM

Nc1ccn(C2OC(CO)C(O)C2(F)F)c(=O)n1 (stereo not given) + Cc1cncc(-c2nc(NCCc3c[nH]c4ccccc34)c3ncn(C(C)C)c3n2)c1
IC50 (second compound 0.1 µM): 377 nM | IC50 (second compound 0.316 µM): 620 nM | IC50 (second compound 1 µM): 811 nM | IC50 (second compound 3.16 µM): 289 nM | IC50 (second compound 10 µM): > 10000 nM | viability, T/C [1]: 71.4% | viability, T/C [2]: 60.1% | viability, T/C [3]: 50.4% | viability, T/C [4]: 48.8% | viability, T/C [5]: 43.4% | viability, T/C [6]: 52% | viability, T/C [7]: 83.1% | viability, T/C [8]: 62.8% | viability, T/C [9]: 51.4% | viability, T/C [10]: 47.3% | viability, T/C [11]: 51.3% | viability, T/C [12]: 43.8% | viability, T/C [13]: 71.5% | viability, T/C [14]: 60.7% | viability, T/C [15]: 49.5% | viability, T/C [16]: 54.3% | viability, T/C [17]: 45.5% | viability, T/C [18]: 46.7% | viability, T/C [19]: 81.3% | viability, T/C [20]: 70.6% | viability, T/C [21]: 48.3% | viability, T/C [22]: 45.2% | viability, T/C [23]: 47.8% | viability, T/C [24]: 45.3% | viability, T/C [25]: 76.6% | viability, T/C [26]: 88.1% | viability, T/C [27]: 78% | viability, T/C [28]: 53.1% | viability, T/C [29]: 54.8% | viability, T/C [30]: 57.1%

NS(=O)(=O)OCC1CC(n2ccc3c(NC4CCc5ccccc54)ncnc32)CC1O (stereo not given) + Cc1cncc(-c2nc(NCCc3c[nH]c4ccccc34)c3ncn(C(C)C)c3n2)c1
IC50 (second compound 0.1 µM): > 10000 nM | IC50 (second compound 0.316 µM): > 10000 nM | IC50 (second compound 1 µM): > 10000 nM | IC50 (second compound 3.16 µM): > 10000 nM | IC50 (second compound 10 µM): > 10000 nM | viability, T/C [1]: 73.7% | viability, T/C [2]: 65.6% | viability, T/C [3]: 57.3% | viability, T/C [4]: 48.6% | viability, T/C [5]: 77% | viability, T/C [6]: 68.2% | viability, T/C [7]: 80% | viability, T/C [8]: 63.3% | viability, T/C [9]: 56.3% | viability, T/C [10]: 55.6% | viability, T/C [11]: 58.1% | viability, T/C [12]: 64.9% | viability, T/C [13]: 74.3% | viability, T/C [14]: 66.7% | viability, T/C [15]: 60.6% | viability, T/C [16]: 49.3% | viability, T/C [17]: 72% | viability, T/C [18]: 59.3% | viability, T/C [19]: 81.8% | viability, T/C [20]: 81.8% | viability, T/C [21]: 66.8% | viability, T/C [22]: 53.8% | viability, T/C [23]: 60.7% | viability, T/C [24]: 66.2% | viability, T/C [25]: 102% | viability, T/C [26]: 91.7% | viability, T/C [27]: 96.4% | viability, T/C [28]: 79.6% | viability, T/C [29]: 74.8% | viability, T/C [30]: 61.6%

O=C(C=Cc1cccc(S(=O)(=O)Nc2ccccc2)c1)NO + Cc1cncc(-c2nc(NCCc3c[nH]c4ccccc34)c3ncn(C(C)C)c3n2)c1
IC50 (second compound 0.1 µM): 1300 nM | IC50 (second compound 0.316 µM): 1360 nM | IC50 (second compound 1 µM): 1120 nM | IC50 (second compound 3.16 µM): 1290 nM | IC50 (second compound 10 µM): 1380 nM | viability, T/C [1]: 102% | viability, T/C [2]: 102% | viability, T/C [3]: 79.6% | viability, T/C [4]: 63.6% | viability, T/C [5]: 18.5% | viability, T/C [6]: 0.47% | viability, T/C [7]: 103% | viability, T/C [8]: 103% | viability, T/C [9]: 96.2% | viability, T/C [10]: 64.1% | viability, T/C [11]: 12.2% | viability, T/C [12]: 0.53% | viability, T/C [13]: 110% | viability, T/C [14]: 115% | viability, T/C [15]: 110% | viability, T/C [16]: 51.9% | viability, T/C [17]: 18.3% | viability, T/C [18]: 1.69% | viability, T/C [19]: 114% | viability, T/C [20]: 99.5% | viability, T/C [21]: 96.7% | viability, T/C [22]: 55.8% | viability, T/C [23]: 21.7% | viability, T/C [24]: 0.41% | viability, T/C [25]: 89.3% | viability, T/C [26]: 87.8% | viability, T/C [27]: 79.5% | viability, T/C [28]: 64.3% | viability, T/C [29]: 15.7% | viability, T/C [30]: 0.74%
